Key:
[1] = Metabolic stability in human liver microsomes assessed as compound metabolism incubated for 30 mins in presence of NADPH by LC-MS/MS analysis; type: ADME, Microsome; settings: read-out: Drug metabolism
[2] = Half life in Wistar rat at 10 ml/kg, po or 2 ml/kg, iv measured upto 24 hrs by LC-MS/MS analysis; type: ADME, organism-based; settings: in vivo
[3] = target: Voltage-gated inwardly rectifying potassium channel KCNH2 (Homo sapiens, UniProt Q12809); experiment: Inhibition of recombinant human ERG expressed in HEK293 at -80 mV holding potential by whole-cell patch clamp method; type: cell-based
Sequence of Voltage-gated inwardly rectifying potassium channel KCNH2 (Q12809 whole entry): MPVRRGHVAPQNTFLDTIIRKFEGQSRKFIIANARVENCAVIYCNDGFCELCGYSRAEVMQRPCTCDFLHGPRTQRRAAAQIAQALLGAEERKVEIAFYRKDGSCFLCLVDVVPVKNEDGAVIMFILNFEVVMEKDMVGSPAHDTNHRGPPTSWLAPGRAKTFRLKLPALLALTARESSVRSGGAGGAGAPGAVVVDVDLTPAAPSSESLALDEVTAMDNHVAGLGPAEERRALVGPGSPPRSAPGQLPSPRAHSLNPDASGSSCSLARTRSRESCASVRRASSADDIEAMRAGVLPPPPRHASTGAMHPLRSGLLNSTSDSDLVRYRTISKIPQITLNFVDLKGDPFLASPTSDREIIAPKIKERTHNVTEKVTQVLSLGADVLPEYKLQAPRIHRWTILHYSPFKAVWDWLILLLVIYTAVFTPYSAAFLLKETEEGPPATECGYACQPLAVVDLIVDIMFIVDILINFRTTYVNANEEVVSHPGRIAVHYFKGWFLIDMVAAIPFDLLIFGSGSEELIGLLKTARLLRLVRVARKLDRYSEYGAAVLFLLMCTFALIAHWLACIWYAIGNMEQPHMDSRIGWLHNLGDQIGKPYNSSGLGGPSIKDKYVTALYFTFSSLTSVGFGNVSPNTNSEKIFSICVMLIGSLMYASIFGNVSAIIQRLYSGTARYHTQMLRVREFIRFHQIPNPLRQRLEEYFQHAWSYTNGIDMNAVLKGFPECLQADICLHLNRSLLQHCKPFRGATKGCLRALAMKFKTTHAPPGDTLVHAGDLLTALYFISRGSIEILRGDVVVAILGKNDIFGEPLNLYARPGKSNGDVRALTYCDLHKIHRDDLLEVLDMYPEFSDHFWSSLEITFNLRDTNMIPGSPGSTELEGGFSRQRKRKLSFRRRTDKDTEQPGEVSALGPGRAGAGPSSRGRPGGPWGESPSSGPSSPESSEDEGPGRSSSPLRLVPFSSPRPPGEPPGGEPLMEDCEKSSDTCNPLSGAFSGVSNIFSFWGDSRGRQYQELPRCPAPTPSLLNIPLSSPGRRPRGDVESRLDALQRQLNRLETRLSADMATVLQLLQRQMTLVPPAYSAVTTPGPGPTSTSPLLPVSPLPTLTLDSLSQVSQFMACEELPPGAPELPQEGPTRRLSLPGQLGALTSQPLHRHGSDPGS

[4] = Ratio of drug level in brain to plasma in Wistar rat at 10 ml/kg, po or 2 ml/kg, iv measured upto 24 hrs by LC-MS/MS analysis; type: ADME, organism-based; settings: brain and plasma, read-out: BPR
Cytochrome P450 2D6 = Cytochrome P450 2D6 (Homo sapiens, UniProt P10635); experiment: Inhibition of CYP2D6 in human liver microsomes using dextromethorphan as substrate incubated for 12 min in presence of NADPH by LC-MS/MS analysis; type: ADME
Sequence of Cytochrome P450 2D6 (P10635 whole entry): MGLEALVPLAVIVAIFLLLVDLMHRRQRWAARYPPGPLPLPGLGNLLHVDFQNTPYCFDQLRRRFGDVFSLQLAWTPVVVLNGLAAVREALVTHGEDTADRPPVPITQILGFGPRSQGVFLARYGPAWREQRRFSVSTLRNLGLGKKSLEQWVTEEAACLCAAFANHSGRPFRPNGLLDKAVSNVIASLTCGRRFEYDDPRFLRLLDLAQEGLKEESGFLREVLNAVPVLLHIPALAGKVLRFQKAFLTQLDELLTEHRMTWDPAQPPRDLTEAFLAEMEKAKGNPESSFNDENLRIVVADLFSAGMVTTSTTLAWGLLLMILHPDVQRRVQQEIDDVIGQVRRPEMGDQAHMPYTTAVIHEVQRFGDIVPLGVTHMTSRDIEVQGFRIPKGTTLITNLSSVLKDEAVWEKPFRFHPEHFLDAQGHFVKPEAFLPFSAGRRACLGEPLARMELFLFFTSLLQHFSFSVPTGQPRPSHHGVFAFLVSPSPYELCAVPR

Cytochrome P450 3A4 [5] = target: T1, Cytochrome P450 3A4 (Homo sapiens, UniProt P08684); experiment: Inhibition of CYP3A4 in human liver microsomes using midazolam as substrate incubated for 2 min in presence of NADPH by LC-MS/MS analysis; type: ADME
T1 sequence (P08684 whole entry): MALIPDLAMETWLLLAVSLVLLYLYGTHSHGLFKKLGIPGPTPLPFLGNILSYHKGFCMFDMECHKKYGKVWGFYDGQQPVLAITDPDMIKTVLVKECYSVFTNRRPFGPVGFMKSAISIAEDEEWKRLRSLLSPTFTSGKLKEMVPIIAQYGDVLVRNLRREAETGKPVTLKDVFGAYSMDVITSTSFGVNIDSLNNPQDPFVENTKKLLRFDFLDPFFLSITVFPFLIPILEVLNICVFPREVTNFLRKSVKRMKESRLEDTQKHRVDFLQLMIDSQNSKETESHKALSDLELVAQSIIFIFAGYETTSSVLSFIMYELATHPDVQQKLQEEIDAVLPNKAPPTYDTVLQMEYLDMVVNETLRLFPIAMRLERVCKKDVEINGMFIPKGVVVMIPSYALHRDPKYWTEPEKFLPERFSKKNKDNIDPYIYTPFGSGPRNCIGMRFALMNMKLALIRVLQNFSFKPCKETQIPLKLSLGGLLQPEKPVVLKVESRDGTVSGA

Rattus norvegicus [6] = experiment: Antidepressant activity in Wistar rat assessed as immobility time at 3.0 mg/kg, po measured for 5 mins by forced swim test (reference value: 241.9 to 281.6 sec); type: functional
Rattus norvegicus [7] = experiment: Antidepressant activity in Wistar rat assessed as reduction in immobility at 1 mg/kg, po administrated for 3 days and measured for 5 mins by forced swim test relative to control; type: functional; design: scale not given: the % may be the effect or the level left
Rattus norvegicus [8] = experiment: Antidepressant activity in Wistar rat assessed as reduction in immobility at 3 mg/kg, po administrated for 3 days and measured for 5 mins by forced swim test relative to control; type: functional; design: scale not given: the % may be the effect or the level left
[9] = Terminal half life in Beagle dog at 1 mg/kg, iv by LC-MS/MS analysis; type: ADME, organism-based, Canis lupus familiaris; settings: in vivo, read-out: beta t1/2 (converted)
[10] = target: Neuronal acetylcholine receptor; alpha4/beta2 (Rattus norvegicus, UniProt P09483+P12390); experiment: In vivo receptor occupancy at alpha4beta2 nAChR in Wistar rat assessed as plasma concentration pretreated for 15 mins followed by non radiolabelled ZW-104 tracer treatment and measured after 45 mins by LC-MS/MS analysis; type: functional, organism-based
Sequence of Neuronal acetylcholine receptor; alpha4/beta2 (P09483 whole entry): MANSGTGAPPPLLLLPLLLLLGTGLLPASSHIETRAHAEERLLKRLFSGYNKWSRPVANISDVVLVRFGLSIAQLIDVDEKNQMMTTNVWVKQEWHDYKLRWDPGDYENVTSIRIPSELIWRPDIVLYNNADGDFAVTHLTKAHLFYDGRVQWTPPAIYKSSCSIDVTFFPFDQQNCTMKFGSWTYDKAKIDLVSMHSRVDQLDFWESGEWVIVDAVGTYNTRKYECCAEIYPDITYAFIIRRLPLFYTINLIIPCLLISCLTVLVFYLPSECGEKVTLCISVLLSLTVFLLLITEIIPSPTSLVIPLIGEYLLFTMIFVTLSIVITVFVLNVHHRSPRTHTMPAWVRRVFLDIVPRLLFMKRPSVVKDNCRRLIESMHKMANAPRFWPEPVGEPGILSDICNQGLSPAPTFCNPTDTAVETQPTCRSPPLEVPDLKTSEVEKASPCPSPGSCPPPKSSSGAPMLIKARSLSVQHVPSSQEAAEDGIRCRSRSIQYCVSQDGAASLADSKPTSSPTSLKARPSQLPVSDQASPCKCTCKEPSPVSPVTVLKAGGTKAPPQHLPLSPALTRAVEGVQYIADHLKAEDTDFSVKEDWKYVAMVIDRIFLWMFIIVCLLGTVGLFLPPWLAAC
Sequence of Neuronal acetylcholine receptor; alpha4/beta2 (P12390 whole entry): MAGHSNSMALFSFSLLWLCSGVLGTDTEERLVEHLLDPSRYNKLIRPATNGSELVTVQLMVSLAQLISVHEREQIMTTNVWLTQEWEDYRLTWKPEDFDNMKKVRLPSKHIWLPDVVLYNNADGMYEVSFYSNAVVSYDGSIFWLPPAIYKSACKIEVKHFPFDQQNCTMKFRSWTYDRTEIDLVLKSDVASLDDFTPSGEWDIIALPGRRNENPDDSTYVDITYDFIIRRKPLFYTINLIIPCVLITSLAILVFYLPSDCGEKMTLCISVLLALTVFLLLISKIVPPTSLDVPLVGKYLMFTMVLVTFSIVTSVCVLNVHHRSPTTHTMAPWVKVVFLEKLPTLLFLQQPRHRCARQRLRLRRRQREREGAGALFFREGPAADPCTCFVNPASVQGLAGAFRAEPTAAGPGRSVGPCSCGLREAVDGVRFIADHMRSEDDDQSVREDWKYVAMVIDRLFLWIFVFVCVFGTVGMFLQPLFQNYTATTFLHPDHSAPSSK

[11] = Protein binding in rat plasma assessed as unbound fraction at […] incubated for 6 hrs by LC-MS/MS analysis; type: ADME, cell-free
[12] = Toxicity in telemetered Beagle dog assessed as change in body temperature up to 25 mg/kg, po; type: organism-based, Canis lupus familiaris; settings: in vivo
[13] = Toxicity in telemetered Beagle dog assessed as change in blood pressure up to 25 mg/kg, po; type: organism-based, Canis lupus familiaris; settings: in vivo
[14] = Toxicity in telemetered Beagle dog assessed as change in heart rate up to 25 mg/kg, po; type: organism-based, Canis lupus familiaris; settings: in vivo
Lymphocyte = experiment: Genotoxicity in human peripheral lymphocytes assessed as non clastogenic by chromosomal aberration assay; type: toxicity, cell-based
Bone marrow cell = experiment: Genotoxicity in mouse bone marrow cells assessed as non clastogenic by micronucleus assay; type: toxicity, cell-based
Cytochrome P450 1A2 = target: T2, Cytochrome P450 1A2 (Homo sapiens, UniProt P05177); experiment: Induction of CYP1A2 (unknown origin); type: ADME
T2 sequence (P05177 whole entry): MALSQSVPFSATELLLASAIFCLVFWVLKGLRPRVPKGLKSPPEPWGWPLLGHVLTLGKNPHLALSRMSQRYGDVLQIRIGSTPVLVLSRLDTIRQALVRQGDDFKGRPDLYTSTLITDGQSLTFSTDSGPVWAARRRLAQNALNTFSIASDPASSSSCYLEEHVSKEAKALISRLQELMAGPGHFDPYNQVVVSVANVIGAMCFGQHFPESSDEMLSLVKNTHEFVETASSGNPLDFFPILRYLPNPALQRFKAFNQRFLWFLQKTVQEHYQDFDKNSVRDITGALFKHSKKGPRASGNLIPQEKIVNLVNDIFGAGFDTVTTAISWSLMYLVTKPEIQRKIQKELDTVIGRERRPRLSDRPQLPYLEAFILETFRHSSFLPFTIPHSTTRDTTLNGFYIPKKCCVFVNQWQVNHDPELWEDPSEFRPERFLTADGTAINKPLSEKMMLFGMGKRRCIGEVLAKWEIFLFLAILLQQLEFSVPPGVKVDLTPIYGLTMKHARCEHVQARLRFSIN

Cytochrome P450 2B6 = target: T3, Cytochrome P450 2B6 (Homo sapiens, UniProt P20813); experiment: Induction of CYP2B6 (unknown origin); type: ADME
T3 sequence (P20813 whole entry): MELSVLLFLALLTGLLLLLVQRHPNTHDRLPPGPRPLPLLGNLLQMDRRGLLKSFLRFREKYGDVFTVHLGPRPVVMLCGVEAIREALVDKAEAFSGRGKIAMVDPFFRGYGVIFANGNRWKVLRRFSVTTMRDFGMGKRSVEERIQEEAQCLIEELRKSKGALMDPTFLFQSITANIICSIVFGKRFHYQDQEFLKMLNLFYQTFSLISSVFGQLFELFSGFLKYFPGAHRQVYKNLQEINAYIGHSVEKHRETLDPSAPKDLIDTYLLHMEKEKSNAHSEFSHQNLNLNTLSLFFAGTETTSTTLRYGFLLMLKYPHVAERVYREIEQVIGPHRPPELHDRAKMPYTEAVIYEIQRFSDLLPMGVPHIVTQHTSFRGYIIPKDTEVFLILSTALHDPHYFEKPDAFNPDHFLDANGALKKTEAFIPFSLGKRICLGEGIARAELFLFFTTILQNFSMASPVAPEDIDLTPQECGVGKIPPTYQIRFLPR

Cytochrome P450 3A4 [15] = target: T1, Cytochrome P450 3A4; experiment: Induction of CYP3A4 (unknown origin); type: ADME
[16] = target: T4, Solute carrier family 22 member 2 (Homo sapiens, UniProt O15244); experiment: Inhibition of OCT2 (unknown origin)
T4 sequence (O15244 whole entry): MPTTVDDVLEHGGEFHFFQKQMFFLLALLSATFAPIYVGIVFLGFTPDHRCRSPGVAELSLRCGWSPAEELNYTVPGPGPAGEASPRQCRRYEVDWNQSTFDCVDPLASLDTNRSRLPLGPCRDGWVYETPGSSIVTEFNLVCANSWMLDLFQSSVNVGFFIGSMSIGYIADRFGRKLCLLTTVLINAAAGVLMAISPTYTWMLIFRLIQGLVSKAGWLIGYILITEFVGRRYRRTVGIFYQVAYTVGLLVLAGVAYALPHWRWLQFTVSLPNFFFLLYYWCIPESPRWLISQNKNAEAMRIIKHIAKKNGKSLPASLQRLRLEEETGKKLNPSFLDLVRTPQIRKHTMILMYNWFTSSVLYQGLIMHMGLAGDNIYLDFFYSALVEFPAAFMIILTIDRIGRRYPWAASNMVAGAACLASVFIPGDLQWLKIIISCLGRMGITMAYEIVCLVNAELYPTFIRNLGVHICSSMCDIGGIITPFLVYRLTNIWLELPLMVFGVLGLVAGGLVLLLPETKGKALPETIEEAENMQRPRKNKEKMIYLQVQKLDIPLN

[17] = Genotoxicity in Salmonella typhimurium TA1537 in presence of metabolic activation; type: toxicity; settings: salmonella enterica subsp. enterica serovar typhimurium
[18] = Genotoxicity in Salmonella typhimurium TA100 in presence of metabolic activation; type: toxicity; settings: salmonella enterica subsp. enterica serovar typhimurium

Cl.Clc1ccc(OC[C@@H]2C[C@H]3C[C@H]3N2)cn1
metabolised at 0.5 h [1]: 33.4% | half-life [2]: 3.34 h | IC50 [3]: > 10 µM | Kp at 24 h [4]: 2.34 | IC50 (Cytochrome P450 2D6): 38.1 µM | IC50 (Cytochrome P450 3A4 [5]): > 45 µM | Time (Rattus norvegicus [6]): 155.9 s | Activity (Rattus norvegicus [7]): 29.35% | Activity (Rattus norvegicus [8]): 35.81% | half-life [9]: 1.9 h | EC50 [10]: 259 µM | fraction unbound at 6 h [11]: 0.31 | Activity [12]: Non-Toxic | Activity [13]: Non-Toxic | Activity [14]: Non-Toxic | Activity (Lymphocyte): Non-Toxic | Activity (Bone marrow cell): Non-Toxic | Activity (Cytochrome P450 1A2): Not Active | Activity (Cytochrome P450 2B6): Not Active | Activity (Cytochrome P450 3A4 [15]): Not Active | inhibition (INH) [16]: Not Active | Activity [17]: Non-Toxic | Activity [18]: Non-Toxic

Source: ChEMBL document CHEMBL4602676, “Discovery and Development of 3-(6-Chloropyridine-3-yloxymethyl)-2-azabicyclo[3.1.0]hexane Hydrochloride (SUVN-911): A Novel, Potent, Selective, and Orally Active Neuronal Nicotinic Acetylcholine α4β2 Receptor Antagonist for the Treatment of Depression” (J Med Chem, 2020)
